Common to all, as to format: cell-based, rat
The subject of assay [1] is PCl2 cells. Kind of assay: Bt2cAMP-inductive neurite formation effect. Conditions: 0.5 mM Bt2cAMP; for change in the neurite formation ratio: amino acid concentration increased up to 200 μM; for neurite formation promoting effect compared with L-valine: 0.2 μM or 2 μM, FIG. 4. How it is done: (§1) Using rat adrenal medullary pheochromocytoma-derived PCl2 cells obtained from Riken BioResource Research Center as a model, the L-valine solutions prepared in Preparation Examples were evaluated for the neurite formation effect and the neural differential promoting effect thereof. When acted on by Bt2cAMP (dibutyryladenosine 3′,5′-cyclic monophosphate) or NGF, the PCl2 cells are known to stop growing and to grow nerve fibers and elongate sympathetic ganglionic neuron-like dendrites. Here, L-valine was introduced into the Bt2cAMP-inductive neurite formation process and the NGF-inductive neural differentiation process to thereby evaluate the neurite formation effect and the neural differentiation promoting effect thereof, and the effect of L-valine was compared with that of L-leucine and L-isolencine.
(§2) Here, the PCl2 cells were cultivated using an RPMI-1640 medium containing 10% equine serum (inactivated), 5% bovine fetal serum (inactivated), 100 U/mL penicillin G and 100 μg/mL streptomycin, in a 5% CO2 vapor phase in an incubator at 37° C., and the resultant cells in an about 70% confluent state were peeled with a basal medium and used in the experiment. In the following, the medium having the same composition as the medium used in cultivation of the PCl2 cells is referred to as “basal medium”.
Here, for the judgement of positivity or negativity, 300 to 400 cells/well were observed.
In the same manner as in the above-mentioned preliminary experiment, a suspension of PCl2 cells was sown in a collagen-coated 96-well plate at 4.0×10^3 cells/90 μL/well, and cultivated therein in a 5% CO2 vapor phase at 37° C. for 24 hours. After the cultivation, Dulbecco PBS(−) containing 10 mM Bt2cAMP, and the L-valine solution prepared in Preparation Example 1 or Preparation Example 2 were added to each well each in an amount of 5 μL/well, and the cells were further cultivated for 24 hours. At this time, the Bt2cAMP concentration in the medium in each well was 0.5 mM.
Next, co-addition of valine and methionine to a medium was checked for the effect. In the same manner as above, Bt2cAMP was added to an RPMI-1640 medium where PCl2 cells were sown and cultivated in each well, and further, an L-valine solution, an L-methionine solution, or a solution of a mixture prepared by mixing L-valine and L-methionine at 1/1 was added thereto and the cells were further cultivated to check for the neurite formation rate. Regarding the concentration of the amino acid added to the RPMI-1640 medium, the concentration in the system using the L-valine solution or the L-methionine solution was 0.2 μM, and the concentration of L-valine and L-methionine in the system using the L-valine and L-methionine mixture solution was 0.1 μM each, totaling 0.2 μM.

Assay [2] concerns PCl2 cells. Kind of assay: NGF-inductive neural differentiation, neurofilament immunofluorescent staining. The settings on record: NGF plus L-valine (sample 1) versus NGF only (comparative sample 2); 48 hours; FIG. 7. How it is done:
as §1, §2
A neurofilament was used as a neural differentiation marker. […]

In assay [3] the test system is PCl2 cells. In words: Bt2cAMP concentration dependency of neurite formation rate (preliminary experiment). The settings on record: Bt2cAMP concentration in the medium 1.0 mM; 24 hours; FIG. 1. How it is done: Using rat adrenal medullary pheochromocytoma-derived PCl2 cells obtained from Riken BioResource Research Center as a model, the L-valine solutions prepared in Preparation Examples were evaluated for the neurite formation effect and the neural differential promoting effect thereof. When acted on by Bt2cAMP (dibutyryladenosine 3′,5′-cyclic monophosphate) or NGF, the PCl2 cells are known to stop growing and to grow nerve fibers and elongate sympathetic ganglionic neuron-like dendrites. Here, L-valine was introduced into the Bt2cAMP-inductive neurite formation process and the NGF-inductive neural differentiation process to thereby evaluate the neurite formation effect and the neural differentiation promoting effect thereof, and the effect of L-valine was compared with that of L-leucine and L-isolencine. Here, the PCl2 cells were cultivated using an RPMI-1640 medium containing 10% equine serum (inactivated), 5% bovine fetal serum (inactivated), 100 U/mL penicillin G and 100 μg/mL streptomycin, in a 5% CO2 vapor phase in an incubator at 37° C., and the resultant cells in an about 70% confluent state were peeled with a basal medium and used in the experiment. […] In FIG. 1, the neurite formation rate is expressed as ±SD, and SD is a standard deviation of the three experiments carried out in the same manner. […]

Where [4] appears, read: amino acid 0.02 or 0.2 μg/mL in RPMI-1640 (FIG. 2), 0.02 μg/mL in Nutrient Mixture F-12 Ham (FIG. 3), 24 hours.
[5] abbreviates: RPMI-1640, high concentration of 20 μM, FIG. 5.

Structures are written as SMILES.

In the case of `N[C@@H](CO)C(=O)O` [serine], in the assay on PCl2 cells [1] (RPMI-1640), the “change in the neurite formation ratio” value was “could not provide any significant change”.

As for `NC(=O)C[C@H](N)C(=O)O` [asparagine], in the assay with PCl2 cells [1] (RPMI-1640), the “change in the neurite formation ratio” value is reported as “could not provide any significant change”.

`N[C@@H](CC(=O)O)C(=O)O` [aspartic acid]: the “change in the neurite formation ratio” value in the assay on PCl2 cells [1] (RPMI-1640) was “could not provide any significant change”.

As for `CC[C@H](C)[C@H](N)C(=O)O` [L-isoleucine], the “neurite formation promoting effect” value in the assay with PCl2 cells [1] (setting [4]) is given as “could not be recognized”.

Turning to `CSCC[C@@H](N)C(=O)O` [D-methionine], the “neurite formation promoting effect” value in the assay with PCl2 cells [1] (setting [5]) is listed as “exhibited the neurite formation promoting effect”.

With `N[C@@H](Cc1c[nH]cn1)C(=O)O` [histidine], the “change in the neurite formation ratio” value in the assay with PCl2 cells [1] (RPMI-1640) is “could not provide any significant change”.

For `C[C@H](N)C(=O)O` [alanine], the “change in the neurite formation ratio” value in the assay with PCl2 cells [1] (RPMI-1640) is “could not provide any significant change”.

For the compound `NCC(=O)O` [glycine], in the assay with PCl2 cells [1] (RPMI-1640), the “change in the neurite formation ratio” value is listed as “could not provide any significant change”.

On to `CC(C)[C@@H](N)C(=O)O` [D-valine], for which the “neurite formation promoting effect compared with L-valine” value in the assay with PCl2 cells [1] (RPMI-1640) is recorded as “same neurite formation promoting effect like that of L-valine”.

For the compound `CC(C)C[C@H](N)C(=O)O` [L-leucine], in the assay on PCl2 cells [1] (setting [4]), the “neurite formation promoting effect” value is “could not be recognized”.

Take `N[C@@H](CS)C(=O)O` [cysteine]: the “change in the neurite formation ratio” value in the assay on PCl2 cells [1] (RPMI-1640) is given as “could not provide any significant change”.

For `O=C(O)[C@@H]1CCCN1` [proline], the “change in the neurite formation ratio” value with PCl2 cells [1] (RPMI-1640) is given as “could not provide any significant change”.

For `N=C(N)NCCC[C@H](N)C(=O)O` [arginine], the “change in the neurite formation ratio” value with PCl2 cells [1] (RPMI-1640) is “could not provide any significant change”.

Turning to `NCCCC[C@H](N)C(=O)O` [lysine], the “change in the neurite formation ratio” value in the assay on PCl2 cells [1] (RPMI-1640) is listed as “could not provide any significant change”.

Consider `CSCC[C@H](N)C(=O)O` [L-methionine], for which the “neurite formation promoting effect” value in the assay with PCl2 cells [1] (setting [5]) is reported as “exhibited the neurite formation promoting effect”.

Regarding `N[C@@H](CCC(=O)O)C(=O)O` [glutamic acid], in the assay with PCl2 cells [1] (RPMI-1640), the “change in the neurite formation ratio” value is reported as “could not provide any significant change”.

Take `NC(=O)CC[C@H](N)C(=O)O` [glutamine]: the “change in the neurite formation ratio” value in the assay on PCl2 cells [1] (RPMI-1640) is “could not provide any significant change”.

On to `N[C@@H](Cc1c[nH]c2ccccc12)C(=O)O` [tryptophan], for which the “change in the neurite formation ratio” value with PCl2 cells [1] (RPMI-1640) is listed as “could not provide any significant change”.

In the case of `CC(C)[C@H](N)C(=O)O` [L-valine], the “neurite formation promoting effect” value in the assay with PCl2 cells [1] (setting [4]) was “significantly promoted”. In addition, the “neurofilaments (bright spots in FITC fluorescently-stained image) versus NGF alone” value with PCl2 cells [2] is recorded as “larger number of bright spots”.

As to `CCCC(=O)Nc1ncnc2c1ncn2[C@@H]1O[C@@H]2COP(=O)(O)O[C@H]2[C@H]1OC(=O)CCC` [Bt2cAMP, dibutyryladenosine 3′,5′-cyclic monophosphate], the “neurite formation rate (maximum)” value with PCl2 cells [3] stood at 19.5%.

Consider `N[C@@H](Cc1ccccc1)C(=O)O` [phenylalanine], for which the “change in the neurite formation ratio” value in the assay with PCl2 cells [1] (RPMI-1640) is given as “could not provide any significant change”.

As to `CC(=O)N[C@H](C(=O)O)C(C)C` [N-acetyl-L-valine], the “neurite formation promoting effect compared with L-valine” value in the assay on PCl2 cells [1] (RPMI-1640) is given as “same neurite formation promoting effect like that of L-valine”.

For the compound `N[C@@H](Cc1ccc(O)cc1)C(=O)O` [tyrosine], in the assay with PCl2 cells [1] (RPMI-1640), the “change in the neurite formation ratio” value was “could not provide any significant change”.

For the compound `C[C@@H](O)[C@H](N)C(=O)O` [threonine], in the assay on PCl2 cells [1] (RPMI-1640), the “change in the neurite formation ratio” value was “could not provide any significant change”.

Source of the values: patent US11246849B2, “Nerve growth promoter” (LAIMU CORPORATION, priority 2017, dated 2022).
